The subject of this experiment is T1, A. ochraceus proteinase.
T1 construct: native extracellular enzyme from culture liquid; about 35 kDa, non-glycosylated
In words: chromogenic assay, pNA release at […] nm, Lineweaver-Burk and Eadie-Hofstee plots. As to conditions: 0.05 M Tris-HCl pH 8.2, 37 °C; substrate 0.25-2.0 mg/mL. It is filed as biochemical, Aspergillus ochraceus.

This passage reports Km results from publication PMC10531319, “Hemostatically Active Proteinase Produced by Aspergillus ochraceus: Key Specific Properties and Effect on Target Proteins” (International Journal of Molecular Sciences, 2023).

Non-standard residues stand in square brackets, D forms with d. Residues, ends and D or L forms follow the SMILES beside them. *: point of attachment. pNA = O=[N+]([O-])c1ccc(N*)cc1

A word on the Km: it is the concentration of substrate that gives half-maximal velocity. Regarding `CC(C)C[C@@H](N)C(=O)N[C@@H](CCCCN)C(=O)Nc1ccc([N+](=O)[O-])cc1` [H-D-Leu-Lys-pNA] (H-[dL]-Lys-pNA), the Michaelis-Menten constant (Km) is 3.48 mM.
